Experimental data: the kinase profiling compilation of Christmann-Franck et al. (2016)

Experiments:
PKN1 (human) = PKN1 (human) (UniProt Q16512); experiment: IMAP-FP
PLK2 (human) = PLK2 (human) (UniProt Q9NYY3); experiment: IMAP-FP
SRPK1 (human) = SRPK1 (human) (UniProt Q96SB4); experiment: IMAP-FP
BTK (human) = BTK (human) (UniProt Q06187); experiment: Caliper, Mobility shift assay off-chip
CLK3 (human) = CLK3 (human) (UniProt P49761); experiment: Caliper, Mobility shift assay off-chip
PAK6 (human) = PAK6 (human) (UniProt Q9NQU5); experiment: Caliper, Mobility shift assay off-chip
STK38 (human) = STK38 (human) (UniProt Q15208); experiment: Caliper, Mobility shift assay off-chip
SYK (human) = SYK (human) (UniProt P43405); experiment: Caliper, Mobility shift assay off-chip
BMPR1A (human) = BMPR1A (human) (UniProt P36894); experiment: ELISA
MAP2K1 (human) = MAP2K1 (human) (UniProt Q02750); experiment: ELISA
MAP2K2 (human) = MAP2K2 (human) (UniProt P36507); experiment: ELISA
MAP2K3 (human) = MAP2K3 (human) (UniProt P46734); experiment: ELISA
MAP2K4 (human) = MAP2K4 (human) (UniProt P45985); experiment: ELISA
MAP2K5 (human) = MAP2K5 (human) (UniProt Q13163); experiment: ELISA
MAP2K6 (human) = MAP2K6 (human) (UniProt P52564); experiment: ELISA
MAP2K7 (human) = MAP2K7 (human) (UniProt O14733); experiment: ELISA
MAP3K1 (human) = MAP3K1 (human) (UniProt Q13233); experiment: ELISA
MAP3K10 (human) = MAP3K10 (human) (UniProt Q02779); experiment: ELISA
MAP3K12 (human) = MAP3K12 (human) (UniProt Q12852); experiment: ELISA
MAP3K2 (human) = MAP3K2 (human) (UniProt Q9Y2U5); experiment: ELISA
MAP3K3 (human) = MAP3K3 (human) (UniProt Q99759); experiment: ELISA
Chain of MAP3K3 (human) (Q99759 whole entry, looked up): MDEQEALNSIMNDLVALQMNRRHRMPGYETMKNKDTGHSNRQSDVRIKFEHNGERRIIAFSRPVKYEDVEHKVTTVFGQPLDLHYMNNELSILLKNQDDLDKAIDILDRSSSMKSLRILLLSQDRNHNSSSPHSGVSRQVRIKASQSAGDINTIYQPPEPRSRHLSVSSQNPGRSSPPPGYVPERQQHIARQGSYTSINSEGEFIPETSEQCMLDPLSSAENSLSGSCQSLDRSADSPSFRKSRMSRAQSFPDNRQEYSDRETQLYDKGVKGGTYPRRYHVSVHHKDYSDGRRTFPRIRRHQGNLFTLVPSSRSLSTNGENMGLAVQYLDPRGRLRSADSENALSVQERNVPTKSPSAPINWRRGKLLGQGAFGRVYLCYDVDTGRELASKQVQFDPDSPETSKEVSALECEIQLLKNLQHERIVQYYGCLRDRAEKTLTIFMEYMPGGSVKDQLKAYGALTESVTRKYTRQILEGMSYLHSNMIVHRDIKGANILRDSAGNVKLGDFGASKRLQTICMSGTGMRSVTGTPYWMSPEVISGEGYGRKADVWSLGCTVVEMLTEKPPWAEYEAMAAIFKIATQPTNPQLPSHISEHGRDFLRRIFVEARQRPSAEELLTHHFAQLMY

MAP3K4 (human) = MAP3K4 (human) (UniProt Q9Y6R4); experiment: ELISA
MAP3K5 (human) = MAP3K5 (human) (UniProt Q99683); experiment: ELISA
MAP3K8 (human) = MAP3K8 (human) (UniProt P41279); experiment: ELISA
MAP3K9 (human) = MAP3K9 (human) (UniProt P80192); experiment: ELISA
Chain of MAP3K9 (human) (P80192 whole entry, looked up): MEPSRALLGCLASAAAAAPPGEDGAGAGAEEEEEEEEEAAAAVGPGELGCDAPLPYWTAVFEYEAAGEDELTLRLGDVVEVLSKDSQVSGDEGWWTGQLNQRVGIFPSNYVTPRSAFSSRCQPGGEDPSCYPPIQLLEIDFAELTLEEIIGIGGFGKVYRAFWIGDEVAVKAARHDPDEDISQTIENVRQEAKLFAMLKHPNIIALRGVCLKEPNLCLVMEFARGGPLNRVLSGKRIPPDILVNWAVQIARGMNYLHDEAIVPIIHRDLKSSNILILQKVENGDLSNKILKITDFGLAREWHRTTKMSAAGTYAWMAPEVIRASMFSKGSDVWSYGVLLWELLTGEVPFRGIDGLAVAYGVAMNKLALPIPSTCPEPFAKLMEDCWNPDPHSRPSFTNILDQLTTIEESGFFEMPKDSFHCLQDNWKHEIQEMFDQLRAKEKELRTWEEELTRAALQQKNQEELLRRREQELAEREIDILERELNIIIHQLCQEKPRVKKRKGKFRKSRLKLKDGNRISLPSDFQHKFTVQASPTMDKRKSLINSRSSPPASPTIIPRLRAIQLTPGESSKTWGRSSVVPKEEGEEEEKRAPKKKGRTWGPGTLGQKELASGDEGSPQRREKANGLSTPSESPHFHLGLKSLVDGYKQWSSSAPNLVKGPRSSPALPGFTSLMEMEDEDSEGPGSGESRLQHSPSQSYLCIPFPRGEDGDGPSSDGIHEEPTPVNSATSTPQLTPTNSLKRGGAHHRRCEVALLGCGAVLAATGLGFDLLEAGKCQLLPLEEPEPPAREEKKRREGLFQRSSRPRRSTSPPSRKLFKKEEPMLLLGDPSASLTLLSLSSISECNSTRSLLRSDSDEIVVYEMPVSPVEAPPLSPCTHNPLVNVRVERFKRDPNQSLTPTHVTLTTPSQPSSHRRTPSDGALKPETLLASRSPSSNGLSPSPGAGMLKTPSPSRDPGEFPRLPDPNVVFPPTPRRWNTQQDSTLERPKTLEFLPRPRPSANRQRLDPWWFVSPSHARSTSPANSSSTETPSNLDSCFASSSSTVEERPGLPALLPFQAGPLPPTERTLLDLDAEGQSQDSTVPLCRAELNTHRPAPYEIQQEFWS

MOS (human) = MOS (human) (UniProt P00540); experiment: ELISA
PLK4 (human) = PLK4 (human) (UniProt O00444); experiment: ELISA
Chain of PLK4 (human) (O00444 whole entry, looked up): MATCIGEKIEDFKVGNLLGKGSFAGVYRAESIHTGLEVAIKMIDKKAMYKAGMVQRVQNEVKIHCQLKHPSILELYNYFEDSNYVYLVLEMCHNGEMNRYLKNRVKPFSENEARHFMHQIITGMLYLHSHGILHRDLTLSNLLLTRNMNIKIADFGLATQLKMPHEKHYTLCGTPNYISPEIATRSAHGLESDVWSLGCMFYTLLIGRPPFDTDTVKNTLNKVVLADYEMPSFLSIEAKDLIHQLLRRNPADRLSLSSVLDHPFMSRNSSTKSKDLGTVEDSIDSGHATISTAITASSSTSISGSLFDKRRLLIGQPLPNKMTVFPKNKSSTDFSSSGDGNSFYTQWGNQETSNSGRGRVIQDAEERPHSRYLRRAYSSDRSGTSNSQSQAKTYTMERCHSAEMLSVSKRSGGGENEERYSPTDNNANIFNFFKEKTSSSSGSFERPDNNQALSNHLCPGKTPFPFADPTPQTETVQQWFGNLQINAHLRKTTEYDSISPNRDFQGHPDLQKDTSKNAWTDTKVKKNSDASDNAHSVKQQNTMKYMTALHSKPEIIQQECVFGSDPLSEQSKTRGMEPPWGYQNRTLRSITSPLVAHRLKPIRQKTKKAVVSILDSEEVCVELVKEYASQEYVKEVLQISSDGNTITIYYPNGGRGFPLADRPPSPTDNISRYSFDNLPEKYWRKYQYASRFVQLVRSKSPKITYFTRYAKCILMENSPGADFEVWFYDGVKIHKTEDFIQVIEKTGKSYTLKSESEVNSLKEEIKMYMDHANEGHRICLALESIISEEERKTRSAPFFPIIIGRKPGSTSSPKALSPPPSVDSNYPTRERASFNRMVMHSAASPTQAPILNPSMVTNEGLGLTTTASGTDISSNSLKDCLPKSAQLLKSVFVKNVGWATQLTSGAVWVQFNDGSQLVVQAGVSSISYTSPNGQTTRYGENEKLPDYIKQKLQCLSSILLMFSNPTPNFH

RAF1 (human) = RAF1 (human) (UniProt P04049); experiment: ELISA
STK11 (human) = STK11 (human) (UniProt Q15831); experiment: ELISA; conditions: compound 0.02 µM
TTK (human) = TTK (human) (UniProt P33981); experiment: ELISA
WEE1 (human) = WEE1 (human) (UniProt P30291); experiment: ELISA
Chain of WEE1 (human) (P30291 whole entry, looked up): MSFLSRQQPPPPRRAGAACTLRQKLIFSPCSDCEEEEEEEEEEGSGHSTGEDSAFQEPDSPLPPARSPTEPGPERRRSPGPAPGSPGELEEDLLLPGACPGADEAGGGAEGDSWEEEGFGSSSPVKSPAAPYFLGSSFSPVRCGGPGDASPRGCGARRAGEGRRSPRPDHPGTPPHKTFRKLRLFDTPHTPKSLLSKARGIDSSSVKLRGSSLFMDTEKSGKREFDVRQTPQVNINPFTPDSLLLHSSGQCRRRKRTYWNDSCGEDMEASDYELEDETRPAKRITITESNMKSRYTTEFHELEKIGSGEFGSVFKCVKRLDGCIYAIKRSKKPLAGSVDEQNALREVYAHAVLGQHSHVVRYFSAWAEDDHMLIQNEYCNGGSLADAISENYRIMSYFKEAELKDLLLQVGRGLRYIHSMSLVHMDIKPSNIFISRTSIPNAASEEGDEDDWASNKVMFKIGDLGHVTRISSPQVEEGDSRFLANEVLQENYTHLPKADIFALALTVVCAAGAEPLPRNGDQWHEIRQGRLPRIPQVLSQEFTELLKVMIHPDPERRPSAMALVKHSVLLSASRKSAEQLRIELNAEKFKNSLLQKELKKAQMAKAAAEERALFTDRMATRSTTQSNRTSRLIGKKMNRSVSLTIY

Chain of PKN1 (human) (Q16512 whole entry, looked up): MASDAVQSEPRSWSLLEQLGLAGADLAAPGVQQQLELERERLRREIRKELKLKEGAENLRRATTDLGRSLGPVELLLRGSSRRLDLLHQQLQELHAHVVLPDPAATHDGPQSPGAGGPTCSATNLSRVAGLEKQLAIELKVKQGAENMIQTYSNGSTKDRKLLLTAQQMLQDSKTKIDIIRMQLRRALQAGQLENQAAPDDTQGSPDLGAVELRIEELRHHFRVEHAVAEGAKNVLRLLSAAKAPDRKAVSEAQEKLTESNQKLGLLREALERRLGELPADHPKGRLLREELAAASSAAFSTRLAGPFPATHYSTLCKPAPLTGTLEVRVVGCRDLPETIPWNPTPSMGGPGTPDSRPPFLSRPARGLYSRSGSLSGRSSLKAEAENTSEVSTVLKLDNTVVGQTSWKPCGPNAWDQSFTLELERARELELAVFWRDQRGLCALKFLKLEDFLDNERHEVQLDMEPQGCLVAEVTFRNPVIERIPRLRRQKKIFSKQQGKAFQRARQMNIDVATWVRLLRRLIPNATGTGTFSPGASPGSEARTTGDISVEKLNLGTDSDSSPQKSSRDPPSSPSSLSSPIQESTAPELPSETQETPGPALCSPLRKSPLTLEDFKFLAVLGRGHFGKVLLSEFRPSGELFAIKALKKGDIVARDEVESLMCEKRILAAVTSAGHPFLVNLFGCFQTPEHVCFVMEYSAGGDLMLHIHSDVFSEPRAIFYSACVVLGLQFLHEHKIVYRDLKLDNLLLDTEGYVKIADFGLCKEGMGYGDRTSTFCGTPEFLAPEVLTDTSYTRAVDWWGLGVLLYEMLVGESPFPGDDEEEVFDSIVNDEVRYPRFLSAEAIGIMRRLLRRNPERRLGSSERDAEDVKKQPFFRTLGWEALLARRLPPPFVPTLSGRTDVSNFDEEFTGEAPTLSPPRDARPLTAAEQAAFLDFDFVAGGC
Chain of PLK2 (human) (Q9NYY3 whole entry, looked up): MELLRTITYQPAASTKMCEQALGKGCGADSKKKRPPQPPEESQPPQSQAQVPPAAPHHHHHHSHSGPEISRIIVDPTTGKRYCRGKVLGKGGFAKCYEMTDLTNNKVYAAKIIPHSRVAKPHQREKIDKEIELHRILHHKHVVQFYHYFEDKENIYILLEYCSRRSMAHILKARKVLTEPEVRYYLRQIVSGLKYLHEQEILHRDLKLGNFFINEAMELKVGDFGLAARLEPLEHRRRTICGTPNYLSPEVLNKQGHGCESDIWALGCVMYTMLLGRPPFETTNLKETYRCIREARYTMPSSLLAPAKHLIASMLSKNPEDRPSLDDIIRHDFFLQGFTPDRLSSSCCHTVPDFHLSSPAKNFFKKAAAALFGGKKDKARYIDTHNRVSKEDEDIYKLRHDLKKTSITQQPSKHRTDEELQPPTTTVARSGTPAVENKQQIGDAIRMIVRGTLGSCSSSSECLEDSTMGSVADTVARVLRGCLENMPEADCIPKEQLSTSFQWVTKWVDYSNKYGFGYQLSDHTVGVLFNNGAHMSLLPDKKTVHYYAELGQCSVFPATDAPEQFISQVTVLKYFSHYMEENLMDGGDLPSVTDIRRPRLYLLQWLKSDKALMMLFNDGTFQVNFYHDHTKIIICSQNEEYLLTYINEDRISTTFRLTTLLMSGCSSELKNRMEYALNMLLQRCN

For Cc1ccc(Nc2nccc(N(C)c3ccc4c(C)n(C)nc4c3)n2)cc1S(N)(=O)=O, the inhibition (PKN1 (human); compound 0.02 µM) was -20.5%, the inhibition (PKN1 (human); compound 0.2 µM) was -27.6% and the inhibition (PLK2 (human); compound 0.02 µM) was 3.9%. The inhibition (PLK2 (human); compound 0.2 µM) was -0.8%, the inhibition (SRPK1 (human); compound 0.02 µM) was -6.8% and the inhibition (SRPK1 (human); compound 0.2 µM) was -3.6%. For the same compound, the inhibition (BTK (human); compound 0.02 µM) was 2.4%, the inhibition (BTK (human); compound 0.2 µM) was 3.1% and the inhibition (CLK3 (human); compound 0.02 µM) was -3.9%. It also gave an inhibition (CLK3 (human); compound 0.2 µM) of 9.6%, an inhibition (PAK6 (human); compound 0.02 µM) of -5.8% and an inhibition (PAK6 (human); compound 0.2 µM) of -5.8%. For the same compound, the inhibition (STK38 (human); compound 0.02 µM) was 0.1%, the inhibition (STK38 (human); compound 0.2 µM) was 7.5% and the inhibition (SYK (human); compound 0.02 µM) was 4.4%. For the same compound, the inhibition (SYK (human); compound 0.2 µM) was -4.7%, the inhibition (BMPR1A (human); compound 0.02 µM) was 0.4% and the inhibition (BMPR1A (human); compound 0.2 µM) was 6.5%. It also gave an inhibition (MAP2K1 (human); compound 0.02 µM) of -3.2%, an inhibition (MAP2K1 (human); compound 0.2 µM) of -5.7% and an inhibition (MAP2K2 (human); compound 0.02 µM) of -7.4%. It also gave an inhibition (MAP2K2 (human); compound 0.2 µM) of -4%, an inhibition (MAP2K3 (human); compound 0.02 µM) of -3.4% and an inhibition (MAP2K3 (human); compound 0.2 µM) of 5.5%. It also gave an inhibition (MAP2K4 (human); compound 0.02 µM) of 8.7%, an inhibition (MAP2K4 (human); compound 0.2 µM) of 9.5% and an inhibition (MAP2K5 (human); compound 0.02 µM) of -16.9%. The inhibition (MAP2K5 (human); compound 0.2 µM) was 0%, the inhibition (MAP2K6 (human); compound 0.02 µM) was 7.1% and the inhibition (MAP2K6 (human); compound 0.2 µM) was 24.5%. For the same compound, the inhibition (MAP2K7 (human); compound 0.02 µM) was 3.2%, the inhibition (MAP2K7 (human); compound 0.2 µM) was 0.2% and the inhibition (MAP3K1 (human); compound 0.02 µM) was -1%. It also gave an inhibition (MAP3K1 (human); compound 0.2 µM) of 3.7%, an inhibition (MAP3K10 (human); compound 0.02 µM) of 8.1% and an inhibition (MAP3K10 (human); compound 0.2 µM) of 17.3%. It also gave an inhibition (MAP3K12 (human); compound 0.02 µM) of 8.5%, an inhibition (MAP3K12 (human); compound 0.2 µM) of 25% and an inhibition (MAP3K2 (human); compound 0.02 µM) of -4%. For the same compound, the inhibition (MAP3K2 (human); compound 0.2 µM) was 12%, the inhibition (MAP3K3 (human); compound 0.02 µM) was 4.7% and the inhibition (MAP3K3 (human); compound 0.2 µM) was 39.5%. It also gave an inhibition (MAP3K4 (human); compound 0.02 µM) of -1.5%, an inhibition (MAP3K4 (human); compound 0.2 µM) of 3% and an inhibition (MAP3K5 (human); compound 0.02 µM) of 1.9%. For the same compound, the inhibition (MAP3K5 (human); compound 0.2 µM) was 8.3%, the inhibition (MAP3K8 (human); compound 0.02 µM) was -2.6% and the inhibition (MAP3K8 (human); compound 0.2 µM) was -1.1%. The inhibition (MAP3K9 (human); compound 0.02 µM) was 28.1%, the inhibition (MAP3K9 (human); compound 0.2 µM) was 74.8% and the inhibition (MOS (human); compound 0.02 µM) was -6.8%. It also gave an inhibition (MOS (human); compound 0.2 µM) of 5%, an inhibition (PLK4 (human); compound 0.02 µM) of 8.8% and an inhibition (PLK4 (human); compound 0.2 µM) of 22.3%. The inhibition (RAF1 (human); compound 0.02 µM) was 22.1%, the inhibition (RAF1 (human); compound 0.2 µM) was 77.8% and the inhibition (STK11 (human)) was 0.6%. For the same compound, the inhibition (TTK (human); compound 0.02 µM) was -8.3%, the inhibition (TTK (human); compound 0.2 µM) was 2.4% and the inhibition (WEE1 (human); compound 0.02 µM) was -3.7%. It also gave an inhibition (WEE1 (human); compound 0.2 µM) of -3.5%.
